Source: PubChem BioAssay AID248 (DTP/NCI, 2004)
“And” between values parts separate entries of the source, which are not always exact repeats. Equal entries are not always repeated. Toxic doses and inconclusive results are not listed.

Test system: L1210 leukemia ip in BDF1 mice, survival T/C
Experiment: NCI In Vivo Anticancer Drug Screen. Data for tumor model L1210 Leukemia (intraperitoneal) in B6D2F1 (BDF1) mice
Conditions: higher = longer survival
In short: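 Tumor cells were implanted, animals were treated, and survival was followed. The result divides the treated measurement by the vehicle-control measurement.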

## Nc1nc(=S)c2[nH]cnc2[nH]1
endpoint: mean survival time, dose: 6.0 mg/kg/injection, schedule: Q01DX Z (ip), vehicle: carboxymethylcellulose (CMC)
  T/C: 98 % of control
endpoint: mean survival time, dose: 7.0 mg/kg/injection, schedule: Q01DX001 (ip), vehicle: saline
  T/C: 104 % of control and 122 % of control
endpoint: mean survival time, dose: 8.0 mg/kg/injection, schedule: Q01DX Z (ip), vehicle: carboxymethylcellulose (CMC)
  T/C: 106 % of control
endpoint: mean survival time, dose: 8.0 mg/kg/injection, schedule: Q04DX008 (ip), vehicle: alkali diluted with saline
  T/C: 154 % of control
endpoint: mean survival time, dose: 8.0 mg/kg/injection, schedule: Q07DX008 (ip), vehicle: alkali diluted with saline
  T/C: 153 % of control
endpoint: mean survival time, dose: 8.3 mg/kg/injection, schedule: Q01DX Z (ip), vehicle: carboxymethylcellulose (CMC)
  T/C: 94 % of control
endpoint: mean survival time, dose: 9.0 mg/kg/injection, schedule: Q01DX Z (ip), vehicle: carboxymethylcellulose (CMC)
  T/C: 96 % of control
endpoint: mean survival time, dose: 10.0 mg/kg/injection, schedule: Q01DX010 (ip), vehicle: other
  T/C: 115 % of control
endpoint: mean survival time, dose: 12.0 mg/kg/injection, schedule: Q04DX004 (ip), vehicle: alkali diluted with saline
  T/C: 152 % of control
endpoint: mean survival time, dose: 12.0 mg/kg/injection, schedule: Q04DX006 (ip), vehicle: alkali diluted with saline
  T/C: 151 % of control
endpoint: mean survival time, dose: 13.0 mg/kg/injection, schedule: Q01DX001 (ip), vehicle: carboxymethylcellulose (CMC)
  T/C: 152 % of control
endpoint: mean survival time, dose: 16.0 mg/kg/injection, schedule: Q01DX Z (sc), vehicle: saline
  T/C: 106 % of control
endpoint: mean survival time, dose: 20.0 mg/kg/injection, schedule: Q01DX001 (ip), vehicle: alkali diluted with saline
  T/C: 153 % of control
endpoint: mean survival time, dose: 20.0 mg/kg/injection, schedule: Q04DX003 (ip), vehicle: alkali diluted with saline
  T/C: 154 % of control
endpoint: mean survival time, dose: 24.0 mg/kg/injection, schedule: Q03DX006 (ip), vehicle: saline
  T/C: 107 % of control
endpoint: mean survival time, dose: 24.0 mg/kg/injection, schedule: Q07DX003 (ip), vehicle: saline
  T/C: 152 % of control
endpoint: mean survival time, dose: 24.0 mg/kg/injection, schedule: Q## X008 (ip), vehicle: alkali diluted with saline
  T/C: 116 % of control
endpoint: mean survival time, dose: 24.0 mg/kg/injection, schedule: Q## X024 (ip), vehicle: alkali diluted with saline
  T/C: 102 % of control
endpoint: mean survival time, dose: 27.0 mg/kg/injection, schedule: Q07DX004 (ip), vehicle: alkali diluted with saline
  T/C: 153 % of control
endpoint: mean survival time, dose: 30.0 mg/kg/injection, schedule: Q04DX003 (ip), vehicle: alkali diluted with saline
  T/C: 150 % of control
endpoint: mean survival time, dose: 36.0 mg/kg/injection, schedule: Q## X016 (ip), vehicle: alkali diluted with saline
  T/C: 105 % of control
endpoint: mean survival time, dose: 36.0 mg/kg/injection, schedule: Q## X024 (ip), vehicle: alkali diluted with saline
  T/C: 98 % of control
endpoint: mean survival time, dose: 40.0 mg/kg/injection, schedule: Q07DX004 (ip), vehicle: alkali diluted with saline
  T/C: 152 % of control
endpoint: mean survival time, dose: 50.0 mg/kg/injection, schedule: Q01DX001 (ip), vehicle: saline
  T/C: 118 % of control
endpoint: mean survival time, dose: 54.0 mg/kg/injection, schedule: Q## X008 (ip), vehicle: alkali diluted with saline
  T/C: 105 % of control
endpoint: mean survival time, dose: 54.0 mg/kg/injection, schedule: Q## X016 (ip), vehicle: alkali diluted with saline
  T/C: 97 % of control
endpoint: mean survival time, dose: 60.0 mg/kg/injection, schedule: Q07DX004 (ip), vehicle: alkali diluted with saline
  T/C: 152 % of control
endpoint: mean survival time, dose: 67.0 mg/kg/injection, schedule: Q01DX001 (ip), vehicle: alkali diluted with saline
  T/C: 152 % of control
endpoint: mean survival time, dose: 80.0 mg/kg/injection, schedule: Q01DX001 (ip), vehicle: alkali diluted with saline
  T/C: 150 % of control
endpoint: mean survival time, dose: 90.0 mg/kg/injection, schedule: Q07DX004 (ip), vehicle: alkali diluted with saline
  T/C: 120 % of control
endpoint: mean survival time, dose: 90.0 mg/kg/injection, schedule: Q07DX006 (ip), vehicle: alkali diluted with saline
  T/C: 118 % of control
endpoint: mean survival time, dose: 96.0 mg/kg/injection, schedule: Q07DX003 (ip), vehicle: saline
  T/C: 103 % of control
endpoint: mean survival time, dose: 100.0 mg/kg/injection, schedule: Q01DX001 (ip), vehicle: alkali diluted with saline
  T/C: 150 % of control
endpoint: mean survival time, dose: 100.0 mg/kg/injection, schedule: Q01DX001 (ip), vehicle: saline
  T/C: 112 % of control
endpoint: mean survival time, dose: 106.0 mg/kg/injection, schedule: Q04DX002 (ip), vehicle: alkali diluted with saline
  T/C: 98 % of control
endpoint: mean survival time, dose: 112.0 mg/kg/injection, schedule: Q01DX001 (ip), vehicle: saline
  T/C: 98 % of control
endpoint: mean survival time, dose: 150.0 mg/kg/injection, schedule: Q01DX001 (ip), vehicle: alkali diluted with saline
  T/C: 103 % of control
endpoint: mean survival time, dose: 448.0 mg/kg/injection, schedule: Q01DX001 (ip), vehicle: saline
  T/C: 119 % of control
endpoint: mean survival time, dose: 16.0 micrograms/kg/injection, schedule: Q01DX015 (ip), vehicle: alkali diluted with saline
  T/C: 100 % of control
endpoint: mean survival time, dose: 32.0 micrograms/kg/injection, schedule: Q01DX015 (ip), vehicle: alkali diluted with saline
  T/C: 107 % of control
endpoint: mean survival time, dose: 63.0 micrograms/kg/injection, schedule: Q01DX015 (ip), vehicle: alkali diluted with saline
  T/C: 107 % of control
endpoint: mean survival time, dose: 125.0 micrograms/kg/injection, schedule: Q01DX015 (ip), vehicle: alkali diluted with saline
  T/C: 116 % of control
endpoint: mean survival time, dose: 196.0 micrograms/kg/injection, schedule: Q01DX Z (ip), vehicle: carboxymethylcellulose (CMC)
  T/C: 122 % of control
endpoint: mean survival time, dose: 250.0 micrograms/kg/injection, schedule: Q01DX015 (ip), vehicle: alkali diluted with saline
  T/C: 103 % of control
endpoint: median survival time, dose: 4.0 mg/kg/injection, schedule: Q01DX009 (ip), vehicle: other
  T/C: 150 % of control
endpoint: median survival time, dose: 16.0 mg/kg/injection, schedule: Q01DX009 (ip), vehicle: other
  T/C: 116 % of control
